Data from patent US20070117770A1, “Human ribosomal DNA (rDNA) and ribosomal RNA (rRNA) nucleic acids and uses thereof” (Cylene Pharmaceuticals, Inc., priority 2005, published 2007).

What was measured:
[1] = system: cellular DNA or RNA in A549 cells; assay: Cellular target study, RNase A or DNase I treatment of compound-treated cells; type: cell-based; conditions: 2 uM
Description: To determine the cellular target of rRNA-interacting compounds, a study was conducted to ascertain whether the compounds could select for cellular DNA or RNA. In these studies A549 cells were plated in borosilicate chamber slides. The cells were treated with 2 uM compound A-1 the next day for one hour or two hours, washed with PBS, fixed for 10 min in 4% paraformaldehyde, permeabilized for 5 min in 1:1 ethanol:acetone mix, treated with 2.5 ug/mL of RNase A or 340 Kunitz units/mL of DNase I and observed under a fluorescence microscope (Olympus) in the Ex360 nm/Em548 nm channel at 600× magnification. […] Accordingly, a compound tested in the assay interacted with RNA preferentially over DNA in cells.

[2] = system: nucleolin in A549 cells; assay: Cell nucleolin localization (immunofluorescence); type: cell-based; conditions: 10 uM, two hours
Description: An assay was conducted to determine the effect of ribosomal nucleic acid interacting compounds on cell nucleolin location. In these studies, A549 cells were plated in borosilicate chamber slides. The cells were treated with 10 uM compound A-1 the next day for two hours, washed with phosphate buffered saline, fixed for 10 minutes in 4% paraformaldehyde, permeabilized for 5 minutes in a 1:1 ethanol:acetone mix, incubated with a 1:100 dilution of an anti-nucleolin monoclonal antibody (catalog no. RDI-NUCLEOLabm; Research Diagnostics, Inc.) in 5% donkey serum, followed by incubation with a 1:100 diluted TRITC-labeled secondary anti-mouse antibody and observed under a fluorescence microscope (e.g., Olympus) in the TRITC channel at 600× magnification. […] Accordingly, nucleolin was redistributed from the nucleolus to the nucleoplasm in cells treated with a compound tested in the assay.

**Q.** CN1CCCC1CCNC(=O)c1cn2c3c(c(N4CCC(c5cnccn5)C4)c(F)cc3c1=O)Oc1cc3ccccc3cc1-2 (stereo not drawn) [Compound A-1] was tested. Which “effect of RNase treatment on nucleolar staining by the drug” value ([1]; 2.5 ug/mL RNase A) did it give?
**A.** significantly reduced nucleolar staining

**Q.** What about the “effect of DNase I treatment on compound localization” value ([1]; 340 Kunitz units/mL DNase I) of the same molecule?
**A.** minimal effect

**Q.** What about the “nucleolin localization in treated cells” value [2] of the same molecule?
**A.** nucleolin was redistributed to the nucleoplasm
